What is called Ki is a dissociation constant, usually derived from enzyme kinetics or from competition with a known ligand.

This assay has as its target T1, E. coli MTA/AdoHcy nucleosidase (MTAN) (Escherichia coli, UniProt P0AF12).
T1 construct: hexahistidine; made in house; host or cells: bacterial expression vector
The assay is described as follows: MTAN direct UV spectrophotometric enzyme assay (cleavage of MTA, absorbance at 275 nm). The note with it: initial rates fitted to competitive inhibition; 100-250 μM MTA, 50 mM sodium phosphate pH 7, 0-1 μM inhibitor, 25° C; read-out: Ki (inhibitor constant for the initial rate reactions). It is filed as biochemical. On the procedure:
The gene for E. coli MTA/AdoHcy nucleosidase (MTAN) was amplified and cloned into a bacterial hexahistidine plasmid expression vector. Induced recombinant enzyme was purified by Nickel-chelate chromatography, and dialyzed into 100 mM sodium phosphate buffer, pH 7. Enzyme purity was assessed by SDS-PAGE and concentration assigned using the experimentally determined extinction coefficient (ε280=10480 M^−1cm^−1).
MTAN assays were performed in 1 mL quartz cuvettes using a Perkin Elmer Lambda 35 UV/V is spectrometer outfitted with KinLab and UV WinLab software. This direct UV spectrophotometric assay follows the decrease in absorbance at 275 nm that accompanies the cleavage of MTA to MTR and Ade. (2-(4-Amino-5H-pyrrolo[3,2-d]pyrimidin-7-yl)-5-methyl-sulfanylmethyl-pyrrolidine-3,4-diol) and (2-Amino-4-[5-(4-amino-5H-pyrrolo[3,2-d]pyrimidin-7-yl)-3,4 dihydroxy-pyrrolidin-2-ylmethylsulfanyl]-butyric acid) inhibitor concentrations were assigned using UV absorbance and the extinction coefficient of 9-deazaadenine. […] Reactions were initiated by the addition of […] MTAN enzyme to the 1 mL assay mixture, and the change in UV absorbance followed for 20-25 minutes. […] Inhibitor constants for the initial rate reactions (Ki's) were calculated by fitting the results to the equation for competitive inhibition.

T1 sequence (P0AF12 whole entry): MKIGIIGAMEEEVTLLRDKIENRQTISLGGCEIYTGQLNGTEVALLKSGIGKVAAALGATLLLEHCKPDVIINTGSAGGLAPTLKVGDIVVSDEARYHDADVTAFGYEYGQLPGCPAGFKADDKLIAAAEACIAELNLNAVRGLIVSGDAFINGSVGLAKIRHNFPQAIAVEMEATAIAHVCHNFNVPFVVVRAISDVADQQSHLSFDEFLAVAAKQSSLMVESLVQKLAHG

For `Nc1ncnc2c(C3NC(CSCCC(N)C(=O)O)C(O)C3O)c[nH]c12` (stereo not shown) [2-Amino-4-[5-(4-amino-5H-pyrrolo[3,2-d]pyrimidin-7-yl)-3,4-dihydroxy-pyrrolidin-2-ylmethylsulfanyl]-butyric acid], the Ki was less than 10 nM.

The values above are taken from US20090012104A1, “Inhibitors of 5'-Methylthioadenosine Phosphorylase and 5'-Methylthioadenosine/S-Adenosylhomocysteine Nucleosidase” (priority 2004, published 2009).
